From the supplement of paper PMC10307832

What was measured:
Test in all cases: relative viability (nuclei count vs DMSO), 5 days (fraction); higher = more cells survive
[1] = compound: COC1=CC=C(C=C1)CN2C=CC3=C2C=C(C=C3)C(=O)NO + Nc1ncn([C@H]2C[C@H](O)[C@@H](CO)O2)c(=O)n1 [Decitabine] (partner 2 µM)
In short: (§1)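 Lung cancer cell lines were seeded in 1536-well plates and dosed by pin tool the next day, with either a single drug or a fixed anchor-drug dose combined with five library-drug doses (not always all listed) spaced in √10 steps. Five days later, one step fixed the cells and stained their nuclei (final 0.05% Triton X-100, 1% formaldehyde, 1 ug/ml Hoechst), and nuclei were counted on 4× images. Relative viability is the nuclei count in treated wells divided by the count in vehicle wells, and each value is the median of duplicate plates.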

[2] = compound: COC1=CC=C(C=C1)CN2C=CC3=C2C=C(C=C3)C(=O)NO + COc1cccc2cc(-c3nc([C@H]4CC[C@H](C(=O)O)CC4)n4ncnc(N)c34)[nH]c12 [OSI-027] (partner 0.5 µM)
In short: as §1

Veliparib + OSI-027 = compound: C[C@]1(c2nc3c(C(N)=O)cccc3[nH]2)CCCN1 [Veliparib] + COc1cccc2cc(-c3nc([C@H]4CC[C@H](C(=O)O)CC4)n4ncnc(N)c34)[nH]c12 [OSI-027] (partner 0.5 µM)
In short: as §1

[3] = compound: COC1=CC=C(C=C1)CN2C=CC3=C2C=C(C=C3)C(=O)NO + C[C@@H](Oc1cc(-c2cnn(C3CCNCC3)c2)cnc1N)c1c(Cl)ccc(F)c1Cl [Crizotinib] (partner 1 µM)
In short: as §1

Cell Line	relative viability ([1]; first compound 0.08 µM)	relative viability ([1]; first compound 0.253 µM)	relative viability ([1]; first compound 0.8 µM)	relative viability ([1]; first compound 2.53 µM)	relative viability ([1]; first compound 8 µM)	relative viability ([2]; first compound 0.08 µM)	relative viability ([2]; first compound 0.253 µM)	relative viability ([2]; first compound 0.8 µM)	relative viability ([2]; first compound 2.53 µM)	relative viability ([2]; first compound 8 µM)	relative viability (Veliparib + OSI-027; first compound 0.02 µM)	relative viability (Veliparib + OSI-027; first compound 0.06325 µM)	relative viability (Veliparib + OSI-027; first compound 0.2 µM)	relative viability (Veliparib + OSI-027; first compound 0.6325 µM)	relative viability (Veliparib + OSI-027; first compound 2 µM)	relative viability ([3]; first compound 0.08 µM)	relative viability ([3]; first compound 0.253 µM)	relative viability ([3]; first compound 0.8 µM)	relative viability ([3]; first compound 2.53 µM)	relative viability ([3]; first compound 8 µM)
NCI-H23	0.291	0.325	0.377	0.301	0.296	0.511	0.68	0.582	0.732	0.53	0.652	0.393	0.587	0.518	0.737	0.481	0.708	0.445	0.343	0.401
Calu-6																0.433	0.759	0.773	0.894	0.71
NCI-H1623						0.435	0.727	0.468	0.43	0.376	0.384	0.362	0.425	0.42	0.431					
LC-2-ad	0.853	0.871	0.81	0.773	0.816	0.793	0.853	0.826	0.979	0.671		0.758	0.781	0.792	0.87	0.33	0.531	0.467	0.408	0.397
HARA		0.493	0.6	0.587	0.534		0.522	0.535	0.553	0.42	0.508	0.495	0.465	0.433	0.485	0.194	1.1	0.99	1.09	0.951
NCI-H1993	0.602	0.599	0.526	0.675	0.613	0.525	0.626	0.53	0.571	0.521	0.592	0.531	0.562	0.585	0.51	0.698	0.919	0.803	0.901	0.881
SK-MES-1	0.397	0.377	0.436	0.369	0.343	0.639	0.626	0.62	0.638	0.583	0.618	0.527	0.686	0.588	0.638	1	0.983	0.984	1	0.885
NCI-H2023	0.201	0.234	0.272	0.244	0.173	0.369	0.406	0.418	0.372	0.344	0.339	0.398	0.442	0.347	0.432	0.625	0.586	0.728	0.652	0.59
EMC-BAC-2	0.606		1.02	0.968	0.876	0.371	0.371	0.425	0.381	0.33	0.346	0.318	0.379	0.349	0.345	0.224	0.828	0.746	0.708	0.687
H3255	0.565	0.551	0.627	0.55	0.567	0.473	0.58	0.606	0.545	0.553	0.674	0.681	0.584	0.545	0.584	0.571	0.933	0.88	0.833	0.787
SK-LU-1	0.611	0.616	0.634	0.753	0.531	0.358	0.316	0.34	0.284	0.352	0.388	0.316	0.381	0.307	0.343	0.929	1.17	0.992	1.01	0.749
BEN	0.677	0.726	0.702	0.664	0.618	0.27	0.296	0.288	0.318	0.291	0.288	0.315	0.294	0.296	0.3	0.756	0.814	0.894	0.869	0.851
NCI-H727	0.813	0.866	0.792	0.705	0.909	0.592	0.576	0.513	0.809	0.534	0.527	0.439	0.648	0.494	0.537	0.578	0.945	0.98	0.71	0.592
NCI-H1755	0.632	0.737	0.64	0.743	0.683	0.632	0.746	0.732	0.732	0.708	0.767	0.713	0.683	0.586	0.645	0.789	0.852	0.858	0.928	0.879
NCI-H1944		0.431	0.384	0.456	0.406		0.427	0.401	0.407	0.375	0.439	0.363	0.394	0.349	0.384		1.18	1.1	1.09	1.08
NCI-H322M			0.716	0.66	0.69		0.529	0.555	0.397	0.487		0.48	0.526	0.557	0.482		0.816	0.98	0.851	0.793
NCI-H647	0.509	0.401	0.434	0.426	0.405	0.531	0.752	0.49	0.634	0.492	0.662	0.479	0.618	0.605	0.648	0.868	1	1.04	0.914	1.01
LXF-289		0.413	0.391	0.386	0.329		0.823	0.896	0.908	0.716	0.836	0.781	0.799	0.711	0.759	0.317	0.827	0.827	0.803	0.793
